According to ChEMBL document CHEMBL4673219, “Novel 5,6-disubstituted pyrrolo[2,3-d]pyrimidine derivatives as broad spectrum antiproliferative agents: Synthesis, cell based assays, kinase profile and molecular docking study” (Bioorg Med Chem, 2018):

Key:
Format in all cases: functional
[1] = test system: NCI-H23; assay: Growth inhibition of human NCI-H23 cells assessed as growth percentage at 0.1 uM incubated for 48 hrs by sulforhodamine B assay relative to control; conditions: read-out: Activity
[2] = test system: PC-3; assay: Growth inhibition of human PC-3 cells assessed as growth percentage at 10 uM incubated for 48 hrs by sulforhodamine B assay relative to control; conditions: read-out: Activity
[3] = test system: UO-31; assay: Growth inhibition of human UO-31 cells assessed as growth percentage at 10 uM incubated for 48 hrs by sulforhodamine B assay relative to control; conditions: read-out: Activity
[4] = test system: MCF7; assay: Growth inhibition of human MCF7 cells assessed as growth percentage at 10 uM incubated for 48 hrs by sulforhodamine B assay relative to control; conditions: read-out: Activity
[5] = test system: HCT-116; assay: Growth inhibition of human HCT-116 cells assessed as growth percentage at 100 uM incubated for 48 hrs by sulforhodamine B assay relative to control; conditions: read-out: Activity
[6] = test system: SW-620; assay: Growth inhibition of human SW-620 cells incubated for 48 hrs by sulforhodamine B assay; conditions: for CC50: read-out: LC50 (the source's name)
[7] = test system: NCI-H322M; assay: Growth inhibition of human NCI-H322M cells assessed as growth percentage at 0.01 uM incubated for 48 hrs by sulforhodamine B assay relative to control; conditions: read-out: Activity
[8] = test system: HCC 2998; assay: Growth inhibition of human HCC 2998 cells assessed as growth percentage at 0.1 uM incubated for 48 hrs by sulforhodamine B assay relative to control; conditions: read-out: Activity
[9] = test system: HT-29; assay: Growth inhibition of human HT-29 cells assessed as growth percentage at 0.01 uM incubated for 48 hrs by sulforhodamine B assay relative to control; conditions: read-out: Activity
[10] = test system: UACC-62; assay: Growth inhibition of human UACC-62 cells assessed as growth percentage at 10 uM incubated for 48 hrs by sulforhodamine B assay relative to control; conditions: read-out: Activity
[11] = test system: A549; assay: Growth inhibition of human A549/ATCC cells assessed as growth percentage at 10 uM incubated for 48 hrs by sulforhodamine B assay relative to control; conditions: read-out: Activity
[12] = test system: DU-145; assay: Growth inhibition of human DU-145 cells assessed as growth percentage at 1 uM incubated for 48 hrs by sulforhodamine B assay relative to control; conditions: read-out: Activity
[13] = test system: NCI-H460; assay: Growth inhibition of human NCI-H460 cells assessed as growth percentage at 10 uM incubated for 48 hrs by sulforhodamine B assay relative to control; conditions: read-out: Activity
[14] = test system: RPMI-8226; assay: Growth inhibition of human RPMI-8226 cells assessed as growth percentage at 0.1 uM incubated for 48 hrs by sulforhodamine B assay relative to control; conditions: read-out: Activity
[15] = test system: CAKI-1; assay: Growth inhibition of human CAKI-1 cells assessed as growth percentage at 1 uM incubated for 48 hrs by sulforhodamine B assay relative to control; conditions: read-out: Activity
[16] = test system: COLO 205; assay: Growth inhibition of human COLO 205 cells assessed as growth percentage at 100 uM incubated for 48 hrs by sulforhodamine B assay relative to control; conditions: read-out: Activity
[17] = test system: TK-10; assay: Growth inhibition of human TK-10 cells assessed as growth percentage at 0.01 uM incubated for 48 hrs by sulforhodamine B assay relative to control; conditions: read-out: Activity
[18] = test system: A549; assay: Growth inhibition of human A549/ATCC cells incubated for 48 hrs by sulforhodamine B assay
[19] = test system: T47D; assay: Growth inhibition of human T47D cells assessed as growth percent at 0.1 uM incubated for 48 hrs by sulforhodamine B assay relative to control; conditions: read-out: Activity
[20] = test system: SNB-19; assay: Growth inhibition of human SNB-19 cells assessed as growth percentage at 0.1 uM incubated for 48 hrs by sulforhodamine B assay relative to control; conditions: read-out: Activity
[21] = test system: NCI-H522; assay: Growth inhibition of human NCI-H522 cells assessed as growth percentage at 10 uM incubated for 48 hrs by sulforhodamine B assay relative to control; conditions: read-out: Activity
[22] = test system: K562; assay: Growth inhibition of human K562 cells assessed as growth percentage at 10 uM incubated for 48 hrs by sulforhodamine B assay relative to control; conditions: read-out: Activity
[23] = test system: NCI-H522; assay: Growth inhibition of human NCI-H522 cells assessed as growth percentage at 0.01 uM incubated for 48 hrs by sulforhodamine B assay relative to control; conditions: read-out: Activity
[24] = test system: OVCAR-8; assay: Growth inhibition of human OVCAR-8 cells assessed as growth percentage at 10 uM incubated for 48 hrs by sulforhodamine B assay relative to control; conditions: read-out: Activity
[25] = test system: MOLT-4; assay: Growth inhibition of human MOLT-4 cells assessed as growth percentage at 1 uM incubated for 48 hrs by sulforhodamine B assay relative to control; conditions: read-out: Activity
[26] = test system: SK-BR-3; assay: Antiproliferative activity against human SK-BR-3 cells assessed as cell growth inhibition measured after 72 hrs by MTT assay
[27] = test system: RPMI-8226; assay: Growth inhibition of human RPMI-8226 cells assessed as growth percentage at 1 uM incubated for 48 hrs by sulforhodamine B assay relative to control; conditions: read-out: Activity
[28] = test system: U-251; assay: Growth inhibition of human U-251 cells assessed as growth percentage at 100 uM incubated for 48 hrs by sulforhodamine B assay relative to control; conditions: read-out: Activity
[29] = test system: PC-3; assay: Growth inhibition of human PC-3 cells assessed as growth percentage at 1 uM incubated for 48 hrs by sulforhodamine B assay relative to control; conditions: read-out: Activity
[30] = test system: IGROV-1; assay: Growth inhibition of human IGROV-1 assessed as growth percent at 0.01 uM incubated for 48 hrs by sulforhodamine B assay relative to control; conditions: read-out: Activity
[31] = test system: U-251; assay: Growth inhibition of human U-251 cells assessed as growth percentage at 10 uM incubated for 48 hrs by sulforhodamine B assay relative to control; conditions: read-out: Activity
[32] = test system: RXF 393; assay: Growth inhibition of human RXF 393 cells assessed as growth percentage at 0.1 uM incubated for 48 hrs by sulforhodamine B assay relative to control; conditions: read-out: Activity
[33] = test system: SN12C; assay: Growth inhibition of human SN12C cells assessed as growth percentage at 100 uM incubated for 48 hrs by sulforhodamine B assay relative to control; conditions: read-out: Activity
[34] = test system: SK-MEL-2; assay: Growth inhibition of human SK-MEL-2 cells incubated for 48 hrs by sulforhodamine B assay
[35] = test system: MOLT-4; assay: Growth inhibition of human MOLT-4 cells assessed as growth percentage at 0.1 uM incubated for 48 hrs by sulforhodamine B assay relative to control; conditions: read-out: Activity
[36] = test system: MDA-MB-468; assay: Growth inhibition of human MDA-MB-468 cells assessed as growth percentage at 0.01 uM incubated for 48 hrs by sulforhodamine B assay relative to control; conditions: read-out: Activity
[37] = test system: Hs-578T; assay: Growth inhibition of human Hs-578T cells assessed as growth percentage at 1 uM incubated for 48 hrs by sulforhodamine B assay relative to control; conditions: read-out: Activity
[38] = test system: M14; assay: Growth inhibition of human M14 cells assessed as growth percentage at 1 uM incubated for 48 hrs by sulforhodamine B assay relative to control; conditions: read-out: Activity

Work on `CCCCCCCC(=O)Nc1nc2[nH]c(CN3CCN(Cc4cccc(F)c4)CC3)c(CN3CCN(Cc4cccc(F)c4)CC3)c2c(=O)[nH]1` yielded a growth at 0.1 µM [1] of 100%, a growth at 10 µM [2] of -95.1% and a growth at 10 µM [3] of -96.5%. The growth at 10 µM [4] was -72.9%, the growth at 100 µM [5] was -69% and the GI50 ([6]; 48 h) was 190 nM. For the same compound, the TGI ([6]; 48 h) was 380 nM, the CC50 ([6]; 48 h) was 740 nM and the GI50 ([6]; Homo sapiens, SW-620, 48 h) was 191 nM. It also gave a TGI ([6]; Homo sapiens, SW-620, 48 h) of 377 nM, a CC50 ([6]; Homo sapiens, SW-620, 48 h) of 744 nM and a growth at 0.01 µM [7] of 94%. For the same compound, the growth at 0.1 µM [8] was 104%, the growth at 0.01 µM [9] was 96% and the growth at 10 µM [10] was -93.9%. It also gave a growth at 10 µM [11] of -74.7%, a growth at 1 µM [12] of 56% and a growth at 10 µM [13] of -82.3%. It also gave a growth at 0.1 µM [14] of 97%, a growth at 1 µM [15] of 70% and a growth at 100 µM [16] of -94%. It also gave a growth at 0.01 µM [17] of 91%, a GI50 ([18]; 48 h) of 340 nM and an LC50 ([18]; Homo sapiens, A549) of 4360 nM. It also gave a TGI ([18]; Homo sapiens, A549) of 1240 nM, a GI50 ([18]; Homo sapiens, A549, 48 h) of 343 nM and a growth at 0.1 µM [19] of 88%. The growth at 0.1 µM [20] was 98%, the growth at 10 µM [21] was -71.5% and the growth at 10 µM [22] was -65.6%. It also gave a growth at 0.01 µM [23] of 106%, a growth at 10 µM [24] of -77.7% and a growth at 1 µM [25] of -15%. The GI50 [26] was 3910 nM, the growth at 1 µM [27] was 13% and the growth at 100 µM [28] was -95%. It also gave a growth at 1 µM [29] of 68%, a growth at 0.01 µM [30] of 98% and a growth at 10 µM [31] of -92.7%. The growth at 0.1 µM [32] was 100%, the growth at 100 µM [33] was -69% and the GI50 ([34]; 48 h) was 1570 nM. The TGI ([34]; 48 h) was 3030 nM, the GI50 ([34]; Homo sapiens, SK-MEL-2, 48 h) was 2210 nM and the TGI ([34]; Homo sapiens, SK-MEL-2, 48 h) was 4120 nM. It also gave a CC50 ([34]; Homo sapiens, SK-MEL-2, read-out: LC50 (the source's name)) of 5870 nM, a growth at 0.1 µM [35] of 95% and a growth at 0.01 µM [36] of 92%. The growth at 1 µM [37] was 61% and the growth at 1 µM [38] was -47%.

In the case of `Nc1nc2[nH]c(CN3CCN(c4cc(Cl)cc(Cl)c4)CC3)c(CN3CCN(c4cc(Cl)cc(Cl)c4)CC3)c2c(=O)[nH]1`, the growth at 0.1 µM [1] was 107%, the growth at 10 µM [2] was 59.6% and the growth at 10 µM [3] was 75.1%. For the same compound, the growth at 10 µM [4] was 23.4%, the growth at 100 µM [5] was -59% and the GI50 ([6]; Homo sapiens, SW-620, 48 h) was 1720 nM. For the same compound, the TGI ([6]; Homo sapiens, SW-620, 48 h) was 3500 nM, the CC50 ([6]; Homo sapiens, SW-620, 48 h) was 7120 nM and the growth at 0.01 µM [7] was 102%. It also gave a growth at 0.1 µM [8] of 99%, a growth at 0.01 µM [9] of 105% and a growth at 10 µM [10] of 77.8%. It also gave a growth at 10 µM [11] of 72.7%, a growth at 1 µM [12] of 105% and a growth at 10 µM [13] of 79.4%. It also gave a growth at 0.1 µM [14] of 102%, a growth at 1 µM [15] of 91% and a growth at 100 µM [16] of -45%. The growth at 0.01 µM [17] was 101%, the TGI ([18]; Homo sapiens, A549) was 3730 nM and the GI50 ([18]; Homo sapiens, A549, 48 h) was 1820 nM. The growth at 0.1 µM [19] was 90%, the growth at 0.1 µM [20] was 91% and the growth at 10 µM [21] was 83.3%. The growth at 10 µM [22] was -17.6%, the growth at 0.01 µM [23] was 95% and the growth at 10 µM [24] was 40.6%. The growth at 1 µM [25] was 90%, the GI50 [26] was 3220 nM and the growth at 1 µM [27] was 92%. It also gave a growth at 100 µM [28] of -50%, a growth at 1 µM [29] of 86% and a growth at 0.01 µM [30] of 104%. It also gave a growth at 10 µM [31] of 36.6%, a growth at 0.1 µM [32] of 89% and a growth at 100 µM [33] of -35%. It also gave a GI50 ([34]; Homo sapiens, SK-MEL-2, 48 h) of 2210 nM, a TGI ([34]; Homo sapiens, SK-MEL-2, 48 h) of 4120 nM and a growth at 0.1 µM [35] of 104%. The growth at 0.01 µM [36] was 97%, the growth at 1 µM [37] was 84% and the growth at 1 µM [38] was 94%.
